Data reported in patent publication US20130053382A1, “Inhibitors of Phosphoinositide Dependent Kinase 1 (PDK1)” (priority 2010, published 2013).
pIC50: −log10 of the molar value. Structures can show the parent of a compound that is named as a salt.

Target: T1, recombinant human PDK1 (Homo sapiens, UniProt O15530)
T1 construct: containing amino acids 51-556 of the human PDK1 enzyme; made in house; host or cells: Sf9 insect cells
T1 sequence (O15530 51-556): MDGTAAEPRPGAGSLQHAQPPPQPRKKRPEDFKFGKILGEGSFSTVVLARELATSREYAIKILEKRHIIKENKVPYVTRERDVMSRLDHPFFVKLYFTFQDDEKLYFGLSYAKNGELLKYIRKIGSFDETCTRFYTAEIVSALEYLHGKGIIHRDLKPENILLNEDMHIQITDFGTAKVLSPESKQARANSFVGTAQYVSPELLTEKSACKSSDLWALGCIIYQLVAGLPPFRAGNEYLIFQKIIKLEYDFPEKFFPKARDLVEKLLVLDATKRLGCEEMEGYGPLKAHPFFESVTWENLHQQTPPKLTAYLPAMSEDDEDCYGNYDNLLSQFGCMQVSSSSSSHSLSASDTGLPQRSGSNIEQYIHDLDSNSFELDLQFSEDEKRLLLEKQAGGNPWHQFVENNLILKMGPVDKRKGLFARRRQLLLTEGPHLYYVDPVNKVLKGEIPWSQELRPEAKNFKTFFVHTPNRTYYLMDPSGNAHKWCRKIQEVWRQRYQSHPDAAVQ
Assay: PDK1 IMAP fluorescence polarization kinase assay
Type: biochemical
Conditions: 10 nM PDK1, 100 nM peptide substrate, 100 nM PIFtide, 2.5 uM ATP, 1.5 hours

Going from `O=C(Nc1cc2[nH]ncc2cc1-c1cccc(CN2CCCCC2)c1)c1csc(-c2cc(C(F)(F)F)n[nH]2)n1` [Compound 3-5, N-(5-(3-(piperidin-1-ylmethyl)phenyl)-1H-indazol-6-yl)-2-(3-(trifluoromethyl)-1H-pyrazol-5-yl)thiazole-4-carboxamide hydrochloride] to `O=C(Nc1cc2[nH]ncc2cc1-c1cccc(CN2CCCC2)c1)c1csc(-c2cc(C(F)(F)F)n[nH]2)n1` [Compound 1-11, N-(5-(3-(pyrrolidin-1-ylmethyl)phenyl)-1H-indazol-6-yl)-2-(3-(trifluoromethyl)-1H-pyrazol-5-yl)thiazole-4-carboxamide], the pIC50 rises from 6.77 to 7.48 (0.71 log units).

`Cc1cc(-c2nc(C(=O)Nc3cc4[nH]ncc4cc3-c3ccc4c(c3)CNC4)cs2)[nH]n1` [Compound 5-7, N-(5-(isoindolin-5-yl)-1H-indazol-6-yl)-2-(3-methyl-1H-pyrazol-5-yl)thiazole-4-carboxamide] and `Cc1cc(CN)ccc1-c1cc2cn[nH]c2cc1NC(=O)c1csc(-c2cc(C(F)(F)F)n[nH]2)n1` [Compound 4-6, N-(5-(4-(aminomethyl)-2-methylphenyl)-1H-indazol-6-yl)-2-(3-(trifluoromethyl)-1H-pyrazol-5-yl)thiazole-4-carboxamide] are within 0.2 log units of each other in pIC50: 7.07 for the first, 6.97 for the second.

In the case of `NC1(c2ccc(-c3cc4cn[nH]c4cc3NC(=O)c3csc(-c4cc(C(F)(F)F)n[nH]4)n3)cc2)CC1` [Compound 1-18, N-(5-(4-(1-aminocyclopropyl)phenyl)-1H-indazol-6-yl)-2-(3-(trifluoromethyl)-1H-pyrazol-5-yl)thiazole-4-carboxamide], the pIC50 was 5.73.
